Test results reported in paper PMC10762035, “Molecular basis of human trace amine-associated receptor 1 activation” (Nature Communications, 2024).
Substitutions are numbered along the chain they refer to. Where “and” joins values, the source holds several entries; their conditions need not be identical. Identical values can stand only once. Like-named read-outs stand apart in the source and are kept apart here.

Legend:
Format in all cases: cell-based
hTA1 = target: T1, hTA1 (Homo sapiens, UniProt Q96RJ0); assay: GloSensor cAMP accumulation assay, concentration response, wild-type hTA1 in transfected HEK293T cells; settings: for Emax: HEK-293T; for Dose-response curves for asenapine vs endogenous trace amines: log[Compound], replicate values (N=2);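 on all read-outs here: luminescence read after 30 min compound exposure at room temperature in cells preloaded with D-Luciferin, reflecting Gs-driven cAMP rise, efficacy scaled to the maximal β-PEA response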
T1 construct: expressed in transfected cells; host or cells: HEK293T
T1 sequence (Q96RJ0 1-339): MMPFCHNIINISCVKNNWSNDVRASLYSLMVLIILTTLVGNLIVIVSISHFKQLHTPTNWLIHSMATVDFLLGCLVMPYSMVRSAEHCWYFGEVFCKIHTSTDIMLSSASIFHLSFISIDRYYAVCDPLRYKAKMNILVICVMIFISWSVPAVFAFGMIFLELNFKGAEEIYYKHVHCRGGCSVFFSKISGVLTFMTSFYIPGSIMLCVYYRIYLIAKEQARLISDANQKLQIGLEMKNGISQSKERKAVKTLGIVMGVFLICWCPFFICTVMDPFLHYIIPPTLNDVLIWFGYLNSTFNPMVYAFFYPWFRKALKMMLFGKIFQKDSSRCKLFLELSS

hTA1 R83H = target: T2, hTA1 R83H (Homo sapiens, UniProt Q96RJ0, R83H); assay: GloSensor cAMP accumulation assay, R83H mutant; settings: for ΔEmax values (each mutant value - WT average): R83H mutant minus WT average;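 on all read-outs here: cells transiently co-expressing hTA1 and a cAMP GloSensor, luminescence read 30 min after agonist addition at room temperature, concentration–response fitted by non-linear regression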
T2 construct: expressed in transfected cells; host or cells: HEK293T
T2 sequence (Q96RJ0 1-339 R83H): T1 sequence (Q96RJ0 1-339) with R83H

hTA1 T271N = target: T3, hTA1 T271N (Homo sapiens, UniProt Q96RJ0, T271N); assay: GloSensor cAMP accumulation assay, T271N mutant
T3 construct: expressed in transfected cells; host or cells: HEK293T
T3 sequence (Q96RJ0 1-339 T271N): T1 sequence (Q96RJ0 1-339) with T271N

[1] = WT hTA1, β-PEA = 100, average of the two experiments, read-out: Emax values, Avg
[2] = WT hTA1, β-PEA = 100, each line an independent experiment, 3 replicates
[3] = WT, average of the experiments, β-PEA = 100
[4] = WT, average of the two experiments
[5] = WT, mean of each independent experiment (3 replicates), β-PEA = 100
[6] = WT, single experiments (3 replicates each), β-PEA = 100
[7] = T271N mutant, Figure 5B, β-PEA = 100, each row one independent experiment (3 replicates)
[8] = T271N, n=2, read-out: Span ± SEM (Emax normalized to β-PEA)

## NCCc1ccc(O)cc1 [TYR, tyramine]
hTA1
  Emax: 99%
hTA1; [1]
  Emax: 99%
hTA1; WT hTA1, β-PEA = 100, each line an independent experiment, 3 replicates, read-out: Emax values (Mean)
  Emax: 98.7%
hTA1; [2]
  Emax values, Mean: 99.2414
hTA1; [3]
  Emax values, Avg: 98.98
hTA1; [4]
  Emax values, Avg: 98.98
hTA1; [5]
  Emax values, Mean: 98.7253 and 99.2414
hTA1; [6]
  Emax values, Mean: 98.7253 and 99.2414
hTA1; M = -5
  Dose-response curves for asenapine vs endogenous trace amines: 87.8798 and 96.6135 and 100.84 and 85.1295 and 110.033 and 96.1011
hTA1; M = -5.522
  Dose-response curves for asenapine vs endogenous trace amines: 78.3008 and 89.6171 and 91.9649 and 78.2527 and 93.1412 and 82.5257
hTA1; M = -6
  Dose-response curves for asenapine vs endogenous trace amines: 74.2157 and 61.4437 and 71.9149 and 59.67 and 72.4888 and 65.1224
hTA1; M = -6.522
  Dose-response curves for asenapine vs endogenous trace amines: 42.6615 and 39.1398 and 48.3901 and 34.5221 and 51.4135 and 39.5962
hTA1; M = -7
  Dose-response curves for asenapine vs endogenous trace amines: 13.8777 and 16.742 and 21.1088 and 17.6752 and 31.7847 and 17.7865
hTA1; M = -7.522
  Dose-response curves for asenapine vs endogenous trace amines: 4.58 and 3.454 and 4.252 and 2.943 and 7.126 and 3.989
hTA1; M = -8
  Dose-response curves for asenapine vs endogenous trace amines: 2.796 and 3.5 and 3.313 and 3.588 and 4.545 and 4.122
hTA1; M = -8.522
  Dose-response curves for asenapine vs endogenous trace amines: 0.3075 and 0.6831 and 1.294 and -0.5515 and 0.6503 and 0.4723
hTA1; M = -9
  Dose-response curves for asenapine vs endogenous trace amines: -0.6786 and 0.2605 and 0.02574 and -1.508 and -0.9298 and -0.774
hTA1; M = -9.522
  Dose-response curves for asenapine vs endogenous trace amines: -0.5847 and -0.9603 and -0.3499 and -2.02 and -0.7963 and -1.241
hTA1; M = -10
  Dose-response curves for asenapine vs endogenous trace amines: -0.1151 and -1.148 and -0.9134 and -1.041 and -0.1064 and -1.063
hTA1; M = -10.522
  Dose-response curves for asenapine vs endogenous trace amines: -0.3029 and -1.148 and -1.43 and -1.798 and -1.019 and -1.397
hTA1; M = -11
  Dose-response curves for asenapine vs endogenous trace amines: -0.209 (3×) and -0.6182 and 0.361 and -0.7518
hTA1; M = -11.522
  Dose-response curves for asenapine vs endogenous trace amines: 0.0727 and -0.06817 and 0.2605 and -0.7073 and 0.1607 and -0.4179
hTA1; M = -12
  Dose-response curves for asenapine vs endogenous trace amines: 0.0727 and 1.247 and 0.777 and -1.086 and -0.774 (2×)
hTA1; M = -12.522
  Dose-response curves for asenapine vs endogenous trace amines: 0.4483 and 0.1197 and 0.3544 and -2.02 and -1.575 and -1.33
hTA1; pEC50 values (Mean), WT hTA1, each line an independent experiment, 3 replicates, Figure 2B source data
  EC50: 414 nM and 416 nM
hTA1; pEC50 ± SEM, wt hTA1, HEK293T, n=3
  EC50: 417 nM
hTA1; wt hTA1, HEK293T, n=3, read-out: EC50
  EC50: 415 nM
hTA1 R83H
  ΔEmax values (each mutant value - WT average): -13.6885
hTA1 R83H; R83H mutant, each line an independent experiment, 3 replicates, read-out: pEC50 values (Mean) (converted)
  EC50: 5330 nM
hTA1 R83H; R83H mutant, β-PEA = 100, each line an independent experiment, 3 replicates, read-out: Emax values (Mean)
  Emax: 85.3%
hTA1 R83H; R83H, n=2, read-out: EC50
  EC50: 31400 nM
hTA1 T271N; T271N mutant, Figure 5B, each row one independent experiment (3 replicates), read-out: pEC50 values, Mean (converted)
  EC50: 553 nM and 1350 nM
hTA1 T271N; [7]
  Emax values, Mean: 98.6225
hTA1 T271N; T271N mutant, Figure 5B, β-PEA = 100, each row one independent experiment (3 replicates), read-out: Emax values, Mean
  Emax: 106%
hTA1 T271N; T271N, n=2, read-out: EC50
  EC50: 863 nM
hTA1 T271N; [8]
  Emax: 103 ± 3.93%

## CCc1[nH]nc(C(=O)Nc2ccc([C@H]3CNCCO3)cc2)c1C [ralmitaront]
hTA1
  Emax: 40.1%
hTA1; [1]
  Emax: 40.1%
hTA1; [2]
  Emax values, Mean: 54.4399 and 25.7884
hTA1; [3]
  Emax values, Avg: 40.11
hTA1; [4]
  Emax values, Avg: 40.11
hTA1; [5]
  Emax values, Mean: 54.4399 and 25.7884
hTA1; [6]
  Emax values, Mean: 54.4399 and 25.7884
hTA1 R83H
  ΔEmax values (each mutant value - WT average): -30.9711
hTA1 R83H; R83H mutant, β-PEA = 100, each line an independent experiment, 3 replicates
  Emax values, Mean: 9.143 and -4.118
hTA1 R83H; R83H, n=2, read-out: Span ± SEM (Emax normalized to β-PEA)
  Emax: 2.51 ± 6.63%
hTA1 T271N; T271N mutant minus WT average, Figure 5B
  ΔpEC50 values (each mutant value - WT average), Mean: 0.04727 and -0.1115
hTA1 T271N; [7]
  Emax values, Mean: 121.192 and 53.6921
hTA1 T271N; [8]
  Emax: 87.4 ± 33.8%
hTA1 T271N; T271N, relative to β-PEA, read-out: Emax
  Emax: 87.4%
